Patent US10363239B2, “Method for inhibiting growth of cancer cells” (Pain Therapeutics, Inc., priority 2013, dated 2019)
Read-outs that look alike come from different tables or passages of the source.

Experiments:
[1] = biological target: FLNA pentapeptide of SEQ ID NO: 1 (Bn-VAKGL) (Homo sapiens, UniProt P21333); assay: FITC-NLX-based FLNA screening assay (inhibition of FITC-naloxone binding to Bn-VAKGL on streptavidin plates); details: 10 nM FITC-NLX
[2] = tested on: mu opiate receptor (MOR); assay: MOR agonist activity using [35S]GTPγS binding assay in striatal membranes; assay type: biochemical; details: for MOR agonist activity ([35S]GTPγS binding), FLNA-Binding Compound as Agonist 1 μM + BFNA: 1 μM compound + 1 μM β-funaltrexamine
Method in brief: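 Striatal membranes (200 μg) were preincubated 5 min at 30 °C in HEPES pH 7.5 with 100 mM NaCl, 1 mM MgCl2 and 0.5 nM [35S]GTPγS, then 5 min more with 0.1–10 μM compound. Gαo was immunoprecipitated and bound radioactivity counted by scintillation.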

[3] = read-out: Percent Binding Inhibition, FLNA-binding compound 0.01 μM
[4] = read-out: Percent Binding Inhibition, FLNA-binding compound 0.1 μM
[5] = read-out: Percent Binding Inhibition, FLNA-binding compound 1 μM
[6] = Series C-1, 0.1 μM compound, relative to DAMGO
[7] = Series C-1, 0.1 μM compound, [35S]GTPγS binding to Gαo, striatal membranes
[8] = Series C-1, 1 μM compound + 1 μM β-FNA
[9] = Series C-1, 1 μM compound + β-FNA, relative to DAMGO + BFNA
[10] = Series C-1, 1 μM compound, relative to DAMGO
[11] = Series C-1, 1 μM compound, [35S]GTPγS binding to Gαo, striatal membranes
[12] = FLNA-binding compound 0.01 μM, read-out: Percent Binding Inhibition
[13] = FLNA-binding compound 0.1 μM, read-out: Percent Binding Inhibition
[14] = FLNA-binding compound 1 μM, read-out: Percent Binding Inhibition
[15] = 0.1 μM compound relative to DAMGO
[16] = 1 μM compound + BFNA relative to DAMGO + BFNA
[17] = 1 μM compound relative to DAMGO
[18] = Series B, 0.1 μM compound, relative to DAMGO
[19] = Series B, 0.1 μM compound, [35S]GTPγS binding to Gαo, striatal membranes
[20] = Series B, 1 μM compound + 1 μM β-FNA
[21] = Series B, 1 μM compound + β-FNA, relative to DAMGO + BFNA
[22] = Series B, 1 μM compound, relative to DAMGO
[23] = Series B, 1 μM compound, [35S]GTPγS binding to Gαo, striatal membranes
[24] = Series C-2, 0.1 μM compound, relative to DAMGO
[25] = Series C-2, 0.1 μM compound, [35S]GTPγS binding to Gαo, striatal membranes
[26] = Series C-2, 1 μM compound + 1 μM β-FNA
[27] = Series C-2, 1 μM compound + β-FNA, relative to DAMGO + BFNA
[28] = Series C-2, 1 μM compound, relative to DAMGO
[29] = Series C-2, 1 μM compound, [35S]GTPγS binding to Gαo, striatal membranes

Row | SMILES | inhibition at 0.01 µM [1, 3] [%] | inhibition at 0.1 µM [1, 4] [%] | inhibition at 1 µM [1, 5] [%] | % DAMGO (0.1 μM) [2, 6] [%] | Concentration of FLNA-Binding Compound as Agonist 0.1 μM [2, 7] [%] | Concentration of FLNA-Binding Compound as Agonist 1 μM + BFNA [2, 8] [%] | % DAMGO + BFNA [2, 9] [%] | % DAMGO (1 μM) [2, 10] [%] | Concentration of FLNA-Binding Compound as Agonist 1 μM [2, 11] [%] | inhibition at 0.01 µM [1, 12] [%] | inhibition at 0.1 µM [1, 13] [%] | inhibition at 1 µM [1, 14] [%] | other results
1 | COc1ccc(NC(=O)N2CCC3(CC2)OCCN3S(=O)(=O)c2ccc(OC)cc2)cc1 [Compound C0041] | 38.3 | 47 | 51.2 | 110.1 | 186.1 | 95.5 | 575.3 | 111.7 | 244.4 |  |  |  | 
2 | Cc1ccccc1S(=O)(=O)N1CCC2(CC1)OCCN2S(=O)(=O)c1ccccc1C [Compound C0015] | 31.2 | 40.6 | 45.5 | 78.5 | 138.7 | 126.8 | 193.0 | 78.9 | 204.7 |  |  |  | 
3 | CC1CCC(C(C)C)C(OCC(O)CN2CCN(CCCN3CCOCC3)CC2)C1 (stereo not drawn) [Compound A0026] |  |  |  |  |  |  |  |  |  | 36.4 | 42.4 | 49.2 | MOR agonist activity ([35S]GTPγS binding), FLNA-Binding Compound as Agonist 0.1 μM ([2]; 0.1 μM compound): 140.7%; % DAMGO (0.1 μM) [2, 15]: 79.7%; MOR agonist activity ([35S]GTPγS binding), FLNA-Binding Compound as Agonist 1 μM ([2]; 1 μM compound): 179.8%; MOR agonist activity ([35S]GTPγS binding), FLNA-Binding Compound as Agonist 1 μM + BFNA [2]: 120.8%; % DAMGO + BFNA [2, 16]: 459.3%; % DAMGO (1 μM) [2, 17]: 70.7%
4 | O=S(=O)(c1ccc(Br)cc1Br)N1CCC2(CC1)OCCN2S(=O)(=O)c1ccc(Br)cc1Br [Compound C0070] |  |  |  | 96.2 | 165.6 | 114.2 | 331.0 | 95.9 | 210.8 | 42.6 | 50.6 | 53.6 | 
5 | COc1c2c(cc3c1C(CC(=O)c1ccc(N4CCOCC4)cc1)[N+](C)(C)CC3)OCO2 (stereo not drawn) [Compound B0004] | 38.9 | 50 | 54.8 |  |  |  |  |  |  |  |  |  | % DAMGO (0.1 μM) [2, 18]: 102.8%; MOR agonist activity, percent [35S]GTPγS binding at the stated compound concentration [2, 19]: 170.3%; MOR agonist activity, percent [35S]GTPγS binding at the stated compound concentration [2, 20]: 72.0%; % DAMGO + BFNA [2, 21]: 110.8%; % DAMGO (1 μM) [2, 22]: 85.8%; MOR agonist activity, percent [35S]GTPγS binding at the stated compound concentration [2, 23]: 231.7%
6 | COc1ccc(S(=O)(=O)N2CCSC23CCNCC3)cc1 [S-C0027] |  |  |  |  |  |  |  |  |  | 39.1 | 46.5 | 53.6 | % DAMGO (0.1 μM) [2, 24]: 74.2%; MOR agonist activity, percent [35S]GTPγS binding at the stated compound concentration [2, 25]: 156.2%; MOR agonist activity, percent [35S]GTPγS binding at the stated compound concentration [2, 26]: 56.2%; % DAMGO + BFNA [2, 27]: 98.1%; % DAMGO (1 μM) [2, 28]: 84.4%; MOR agonist activity, percent [35S]GTPγS binding at the stated compound concentration [2, 29]: 286.8%
7 | Cc1cccc(OCC(O)CN2CC(C)OC(C)C2)c1 (stereo not drawn) [Compound A0030] |  |  |  |  |  |  |  |  |  | 35.6 | 44.4 | 48.9 | MOR agonist activity ([35S]GTPγS binding), FLNA-Binding Compound as Agonist 0.1 μM ([2]; 0.1 μM compound): 133.4%; % DAMGO (0.1 μM) [2, 15]: 75.5%; MOR agonist activity ([35S]GTPγS binding), FLNA-Binding Compound as Agonist 1 μM ([2]; 1 μM compound): 287.8%; MOR agonist activity ([35S]GTPγS binding), FLNA-Binding Compound as Agonist 1 μM + BFNA [2]: 165.2%; % DAMGO + BFNA [2, 16]: 628.1%; % DAMGO (1 μM) [2, 17]: 113.2%
8 | COc1cc(C(=O)CC2c3c(cc4c(c3OC)OCO4)CC[N+]2(C)C)cc(OC)c1OC (stereo not drawn) [Compound B0037] | 47.4 | 53 | 52.4 |  |  |  |  |  |  |  |  |  | % DAMGO (0.1 μM) [2, 18]: 76.5%; MOR agonist activity, percent [35S]GTPγS binding at the stated compound concentration [2, 19]: 119.8%; MOR agonist activity, percent [35S]GTPγS binding at the stated compound concentration [2, 20]: 106.2%; % DAMGO + BFNA [2, 21]: 325.8%; % DAMGO (1 μM) [2, 22]: 80.4%; MOR agonist activity, percent [35S]GTPγS binding at the stated compound concentration [2, 23]: 186.0%
9 | CC(=O)c1ccc(S(=O)(=O)N2CCOC23CCN(C)CC3)cc1 [Compound C0093M] | 44.8 | 49.9 | 53.5 |  |  |  |  |  |  |  |  |  | % DAMGO (0.1 μM) [2, 24]: 81.3%; MOR agonist activity, percent [35S]GTPγS binding at the stated compound concentration [2, 25]: 140.0%; MOR agonist activity, percent [35S]GTPγS binding at the stated compound concentration [2, 26]: 44.0%; % DAMGO + BFNA [2, 27]: 127.5%; % DAMGO (1 μM) [2, 28]: 96.4%; MOR agonist activity, percent [35S]GTPγS binding at the stated compound concentration [2, 29]: 211.8%
